Results taken from patent publication US8540999B2, “Allergenic proteins and peptides from Japanese cedar pollen” (Merck Patent GmbH, priority 1991, dated 2013).
Ends that are not written are not given here.

Assays:
Type in all cases: physicochemical
[1] = Solubility, pH range protocol procedure; settings: aqueous sodium phosphate buffer, pH range pH6 to pH8
Excerpt: (§1) Of the above group of modified peptides, several peptides have been identified as “unique” modified peptides. […] Certain modified peptides are characterized as “unique” due to the difficulties encountered when developing a modified peptide which meets all of the stringent requirements of a “unique” peptide defined herein. In many cases, multiple modifications of a parent peptide are attempted prior to identifying a modified derivitive peptide which meets all the characteristics of a “unique” modified peptide. Unique modified peptides are particularly useful as candidate peptides for formulating injectable multipeptide therapeutic formulations of the invention because “unique” modified peptides are soluble and stable in the same physiologically acceptable pH range as well as elicit the necessary T cell reactivity of a therapeutic peptide of the invention. “Unique” modified peptides of the invention include but are not limited to the following group of modified peptides: CJ1-24.5, CJ1-43.39, CJ1-43.50, CJ1-44.8, and CJ1-44.9 all as shown in FIGS. 20 and 44. Example 21 describes the development and identification of “unique” modified peptides of the invention.
(§2) Additional truncation of two C-terminal residues yielded 44.2 (SEQ ID NO: ). […] Thus, 44.2 (SEQ ID NO: ) was further modified by the addition of charged (hydrophilic residues) to the N-terminus and by replacement of the hydrophobic residue Val with the less hydrophobic residue Ala. […] CJI-44.8 (SEQ ID NO: 132) was stable and soluble at greater than 5 mg/ml over the pH range pH6-pH8 in an aqueous buffer.

[2] = Solubility, single pH point protocol procedure; settings: 100 mM sodium phosphate buffer without mannitol, constant agitation
Description: as §2

[3] = Stability in aqueous buffer; settings: pH6 to pH8
Excerpt: as §1, §2

[4] = Solubility testing of parent and truncated peptides (protocol not stated)
Excerpt: For example, the amino acid sequence of CJI-44.8 (SEQ ID NO: 132) was derived from the protein sequence of Cry j I by first identifying those regions of the parent protein with high T cell reactivity using the set of overlapping peptides 20-mers as discussed in Example 6, and shown in FIG. 13, which covered the entire sequence. […] Since these peptides were adjacent to each other in the native protein sequence and overlapped by 10 residues, peptide CJI-44 was synthesized to capture the total T cell reactivity of both peptides. CJI-44 (SEQ ID NO: 90) (FIG. 18) is a peptide 30-mer which contains all of the sequence present in the two 20-mers CJI-31 (SEQ ID NO: 54) and CJI-32 (SEQ ID NO: 56).
as §2

solubility [2] | Sequence | solubility ([4]; truncated analogs of CJI-44) | further results
very soluble | DEEGAYFVSSGKYEGGNIYTKKEAFNVE [CJ1-44.8] | – | solubility [1]: > 5000 µg/mL; stability [3]: stable
– | NGAYFVSSGKYEGGNIYTKKEAFN [CJ1-44.2] | solubility was improved in these sequences it still did not reach the standard | –
increased solubility | DEENGAYFVSSGKYEGGNIYTKKEAFNVE [CJ1-44.6] | – | –
– | NGAYFVSSGKYEGGNIYTKKEAFNVE [CJ1-44.1] | solubility was improved in these sequences it still did not reach the standard | –
– | DVFYNGAYFVSSGKYEGGNIYTKKEAFNVE [CJ1-44] | – | solubility ([4]; protocol not stated, read-out: solubility): < 5000 µg/mL
increased solubility | DENGAYFVSSGKYEGGNIYTKKEAFNAE [CJ1-44.5] | – | –
